According to patent US4652566A, “Benzofuran derivatives, processes for preparing the same and antihypertensive agents containing the same” (Kaken Pharmaceutical Co., Ltd., priority 1984, dated 1987):
Where a name gives a salt, the structure may show the parent alone.

Legend:
[1] = target: T1, calcium antagonism (thoracic aorta spiral specimen, contraction by calcium) (Cavia porcellus, UniProt O35505); assay: Calcium antagonistic effect (contraction response by calcium of spiral thoracic aorta specimen, Magnus method); set-up: species or system Hartly male giunea pig; conditions: guinea pig thoracic aorta; for Kb: antagonism of calcium contraction, read-out: Calcium antagonistic effect, pA2 value (converted)
T1 construct: from tissue; host or cells: thoracic aorta spiral strip of male Hartley guinea pig
Experimental: [Calcium antagonistic effect]
Using a spiral blood vessel specimen taken from a thoracic aorta of Hartly male giunea pig weighed 400 to 600 g, a contraction response by calcium was measured as a dose-response curve according to Magnus method and the antagonistic activity for each test compound was indicated as above-mentioned pA2 value.

[2] = target: T2, α-adrenergic blockade (vas deferens specimen, contraction by noradrenalin) (Rattus norvegicus, UniProt P43140); assay: α-Adrenergic blockade effect (contraction response by noradrenalin of vas deferens specimen, Magnus method); set-up: species or system Wister male rat; conditions: for Kb: rat vas deferens, antagonism of noradrenalin contraction, pA2 = negative logarithm of antagonist dose shifting agonist curve two times, read-out: α-Adrenergic blockade effect, pA2 value (converted)
T2 construct: from tissue; host or cells: vas deferens of six-week-old male Wistar rat
T2 sequence (P43140 1-466): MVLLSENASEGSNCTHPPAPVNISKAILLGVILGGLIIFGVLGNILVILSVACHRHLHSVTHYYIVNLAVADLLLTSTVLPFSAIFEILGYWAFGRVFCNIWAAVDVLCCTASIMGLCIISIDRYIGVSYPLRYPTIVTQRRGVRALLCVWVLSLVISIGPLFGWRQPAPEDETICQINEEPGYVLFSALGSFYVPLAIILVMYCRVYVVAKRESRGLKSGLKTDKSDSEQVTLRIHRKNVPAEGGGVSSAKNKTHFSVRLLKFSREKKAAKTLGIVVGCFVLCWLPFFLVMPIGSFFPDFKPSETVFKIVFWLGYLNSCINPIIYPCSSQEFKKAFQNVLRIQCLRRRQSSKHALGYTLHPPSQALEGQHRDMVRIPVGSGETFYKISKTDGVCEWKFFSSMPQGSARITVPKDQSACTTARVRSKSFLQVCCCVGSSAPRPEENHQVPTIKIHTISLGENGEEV

[3] = Increasing effect on a coronary blood flow (anesthetized dog); format: in vivo; conditions: administered once into perfusion channel
Experimental: [Increasing effect on a coronary blood flow]
Adult dog weighed 9 to 13 kg which was anesthetized intravenously with 30 mg/kg of pentobarbiturate was used for this experiment. The animal was cut open at a chest under a condition of an artificial respiration. After an intravenous injection of 1000 U/kg of heparin, a glass cannula was inserted into coronary ramus circumflexus by way of a left subclavina artery and a perfusion was carried out with blood introduced from a right carotid artery. A blood flow was measured by means of a electromagnetic flowmeter set up at a perfusion channel.
Each of test compounds was dissolved in a physiologic salt solution and the solution was administered once into a perfusion channel. An increase of a coronary blood flow was indicated as a percentage of an increasing rate.
For the purpose of a comparison, the same experiment as mentioned above was carried out on Papavelin which was commonly used as coronary vasodilator.

[4] = Accute toxicity test (LD50 value); conditions: mouse, in vivo; mice; single oral administration; deaths by seventh day; Litchfield-Wilcoxon
Experimental: [Accute toxicity test (LD50 value)]
The experiment was carried out using six weeks old ddy male mice.
Each of test compounds was suspended in an aqueous solution containing 5% by weight of acasia and the suspension was administered compulsorily once orally with a gastric probe. Within six hours after the start of the administration, the behavior of tested mice were observed consecutively. Thereafter, the observation was made at an interval of twenty four hours during 7 days and an accumulative number of deaths seventh day since the start of the administration was measured.
LD50 value was calculated according to the Litchfield-Wilcoxon method.

[5] = Antihypertensive effect and effect on heart rate in spontaneously hypertensive rat (SHR); format: in vivo; conditions: po, single dose
Experimental: [Antihypertensive effect and effect on a heart rate on rat suffering from a spontaneously hypertensive rat (SHR)]
A blood pressure was measured under no anesthetic condition by means of an apparatus for recording a blood pressure of a tail artery and a heart rate (Riken Kaihatsu Co., Ltd.) (PS-802) and at the same time a heart rate was also measured.
Each of test compounds was dissolved or suspended in an aqueous solution containing 5% by weight of acasia and the obtained solution or suspension was administered once orally to SHR which had been kept under a fast condition for one night. A blood pressure and a heart rate were measured before administration and after one hour, three hours, five hours and seven hours of it and the maximum value of changes were calculated by comparing the value measured before administration with the value measured after administration.
For the purpose of a comparison, the same experiment as mentioned above was carried out on both Labetalol and Diltiazem as mentioned above.
With respect to a dosage, 100 mg/kg and 10 mg/kg as to compounds obtained by Examples 2, 5, 6, 9 and 18 to 23 were respectively administered, 100 mg/kg as to compounds obtained by Examples 1, 3, 4, 7 and 10 to 17 was respectively administered.

[6] = 100 mg/kg, maximum over 1, 3, 5, 7 hours (Table 3)
[7] = 10 mg/kg, maximum over 1, 3, 5, 7 hours (Table 2)
[8] = 100 mg/kg, maximum over 1, 3, 5, 7 hours (Table 2)

T1 sequence (O35505 whole entry): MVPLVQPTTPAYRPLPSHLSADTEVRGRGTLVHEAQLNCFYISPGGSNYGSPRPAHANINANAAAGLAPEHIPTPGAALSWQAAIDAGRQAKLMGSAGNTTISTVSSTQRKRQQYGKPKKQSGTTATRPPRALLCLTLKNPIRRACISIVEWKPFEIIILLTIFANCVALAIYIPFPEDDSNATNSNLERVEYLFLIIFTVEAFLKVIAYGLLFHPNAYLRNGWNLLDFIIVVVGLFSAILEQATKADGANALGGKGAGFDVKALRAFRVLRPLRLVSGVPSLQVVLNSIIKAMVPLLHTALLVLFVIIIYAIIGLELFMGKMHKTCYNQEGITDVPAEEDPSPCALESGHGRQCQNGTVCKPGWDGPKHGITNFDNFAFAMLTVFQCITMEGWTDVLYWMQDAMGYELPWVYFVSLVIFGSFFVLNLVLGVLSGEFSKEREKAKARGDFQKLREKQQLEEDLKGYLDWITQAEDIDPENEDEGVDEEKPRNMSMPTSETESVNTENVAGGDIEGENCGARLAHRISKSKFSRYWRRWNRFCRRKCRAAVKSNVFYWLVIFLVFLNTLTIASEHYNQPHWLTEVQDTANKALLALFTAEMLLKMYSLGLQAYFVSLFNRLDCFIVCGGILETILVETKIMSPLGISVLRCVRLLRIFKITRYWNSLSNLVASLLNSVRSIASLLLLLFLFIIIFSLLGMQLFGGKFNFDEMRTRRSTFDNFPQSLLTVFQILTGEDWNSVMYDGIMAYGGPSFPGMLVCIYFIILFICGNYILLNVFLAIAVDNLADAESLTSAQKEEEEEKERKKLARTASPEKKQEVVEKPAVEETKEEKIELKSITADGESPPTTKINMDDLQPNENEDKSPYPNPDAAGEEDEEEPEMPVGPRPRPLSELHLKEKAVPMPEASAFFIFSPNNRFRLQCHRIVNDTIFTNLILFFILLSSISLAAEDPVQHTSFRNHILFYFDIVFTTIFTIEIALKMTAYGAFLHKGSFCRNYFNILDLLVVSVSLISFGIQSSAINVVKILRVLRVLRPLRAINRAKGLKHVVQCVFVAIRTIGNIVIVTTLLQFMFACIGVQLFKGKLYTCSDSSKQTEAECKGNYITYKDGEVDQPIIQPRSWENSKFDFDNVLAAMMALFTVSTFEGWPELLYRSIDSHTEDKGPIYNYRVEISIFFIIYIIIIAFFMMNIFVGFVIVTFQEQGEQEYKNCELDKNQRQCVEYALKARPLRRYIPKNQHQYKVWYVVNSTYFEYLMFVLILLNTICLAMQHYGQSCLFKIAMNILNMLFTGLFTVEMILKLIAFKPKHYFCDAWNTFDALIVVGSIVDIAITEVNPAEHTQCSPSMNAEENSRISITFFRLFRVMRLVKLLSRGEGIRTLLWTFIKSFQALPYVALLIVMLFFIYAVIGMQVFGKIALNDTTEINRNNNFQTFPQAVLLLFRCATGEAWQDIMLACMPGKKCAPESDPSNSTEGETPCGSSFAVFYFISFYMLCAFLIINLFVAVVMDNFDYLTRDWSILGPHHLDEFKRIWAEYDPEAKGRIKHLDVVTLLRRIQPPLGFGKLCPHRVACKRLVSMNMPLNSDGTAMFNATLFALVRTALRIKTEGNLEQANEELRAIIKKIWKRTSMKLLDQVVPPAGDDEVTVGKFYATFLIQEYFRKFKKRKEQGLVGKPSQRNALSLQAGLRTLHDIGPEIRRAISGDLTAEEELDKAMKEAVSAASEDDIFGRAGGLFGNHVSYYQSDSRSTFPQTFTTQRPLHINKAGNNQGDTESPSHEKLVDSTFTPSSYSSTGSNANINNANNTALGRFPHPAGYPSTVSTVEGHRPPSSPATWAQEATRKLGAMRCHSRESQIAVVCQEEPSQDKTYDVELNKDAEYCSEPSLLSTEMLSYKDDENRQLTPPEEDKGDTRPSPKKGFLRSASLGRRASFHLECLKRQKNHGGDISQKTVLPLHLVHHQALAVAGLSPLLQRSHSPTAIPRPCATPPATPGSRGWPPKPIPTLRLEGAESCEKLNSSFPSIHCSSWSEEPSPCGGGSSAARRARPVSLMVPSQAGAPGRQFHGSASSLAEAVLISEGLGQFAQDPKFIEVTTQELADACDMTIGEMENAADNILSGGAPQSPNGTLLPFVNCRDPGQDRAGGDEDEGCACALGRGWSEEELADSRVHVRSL

SMILES	Calcium antagonistic effect, relative ratio as compared with Diltiazem ([1]; Diltiazem = 1.0)	Kb [1]	α-Adrenergic blockade effect, relative ratio as compared with Phentolamine [2]	Kb [2]	Increasing rated of coronary blood flow when administered with a 1 mg [3]	LD50 at 168 h [4]	Maximum value of change, heart rate [5, 6]	Maximum value of change, systolic pressure [5, 6]	Maximum value of change, heart rate [5, 7]	Maximum value of change, systolic pressure [5, 7]	Maximum value of change, heart rate [5, 8]	Maximum value of change, systolic pressure [5, 8]
COc1ccccc1N1CCN(CC(O)COc2ccc3oc(C(C)=O)cc3c2)CC1 (centres unmarked) [Ex. 5 (HCl salt)]	1.9	46.8 nM	3.2	49 nM	107.5 ± 6.5%	> 1500 mg/kg	–	–	–	–	–	–
COc1ccccc1N1CCN(CC(O)COc2cccc3cc(C(C)=O)oc23)CC1 (centres unmarked) [Ex. 2 (HCl salt), 2-acetyl-7-{2-hydroxy-3-[4-(2-methoxyphenyl)piperazinyl]-propoxy}benzofuran]	–	195 nM	–	38.9 nM	88.4 ± 14.2%	–	–	–	–	–	–	–
CC(=O)c1cc2cccc(OCC(O)CN3CCN(c4cccc(Cl)c4)CC3)c2o1 (centres unmarked) [Ex. 8 (HCl salt), 2-acetyl-7-{3-[4-(3-chlorophenyl)piperazinyl]-2-hydroxypropoxy}benzofuran]	–	85.1 nM	–	468 nM	96.3 ± 13.1%	> 1000 mg/kg	-98.4 ± 17.2 beats/min	-44.2 ± 8.4 mmHg	–	–	–	–
COc1ccccc1N1CCN(CC(O)COc2cccc3cc(C(N)=O)oc23)CC1 (centres unmarked) [Ex. 9, 2-carbamoyl-7-{2-hydroxy-3-[4-(2-methoxyphenyl)-piperazinyl]propoxy}benzofuran]	–	631 nM	–	27.5 nM	105.6 ± 11.8%	> 1500 mg/kg	–	–	-154.2 ± 17.3 beats/min	-61.2 ± 4.3 mmHg	-69.2 ± 12.1 beats/min	-75.6 ± 2.4 mmHg
COc1ccc(N2CCN(CC(O)COc3cccc4cc(C(N)=O)oc34)CC2)cc1 (centres unmarked) [Ex. 10, 2-carbamoyl-7-{2-hydroxy-3-[4-(4-methoxyphenyl)piperazinyl]porpoxy,}benzofuran]	–	1260 nM	1.8	87.1 nM	–	1100 mg/kg	-80.0 ± 37.6 beats/min	-97.9 ± 4.0 mmHg	–	–	–	–
COc1ccccc1N1CCN(CC(O)COc2cccc3cc(C#N)oc23)CC1 (centres unmarked) [Ex. 16 (HCl salt), 2-cyano-7-{2-hydroxy-3-[4-(2-methoxyphenyl)piperazinyl]-propoxy} benzofuran]	–	513 nM	–	42.7 nM	–	900 mg/kg	-189.6 ± 26.8 beats/min	-13.3 ± 4.6 mmHg	–	–	–	–
Cc1ccccc1N1CCN(CC(O)COc2ccc3cc(C(N)=O)oc3c2)CC1 (centres unmarked) [Ex. 14, 2-carbamoyl-6-{2-hydroxy-3-[4-(2-methylphenyl)piperazinyl]-propoxy}benzofuran]	–	182 nM	–	110 nM	–	> 1000 mg/kg	-132.9 ± 28.8 beats/min	-67.3 ± 6.8 mmHg	–	–	–	–
COc1ccc(N2CCN(CC(O)COc3cccc4cc(C(C)=O)oc34)CC2)cc1 (centres unmarked) [Ex. 3 (HCl salt), 2-acetyl-7-{2-hydroxy-3-[4-(4-methoxyphenyl)piperazinyl]-propoxy}benzofuran]	–	631 nM	–	457 nM	–	700 mg/kg	-200.0 ± 28.4 beats/min	-22.9 ± 1.7 mmHg	–	–	–	–
COc1ccccc1N1CCN(CC(O)COc2ccc3oc(C(N)=O)cc3c2)CC1 (centres unmarked) [Ex. 12]	–	1170 nM	1.6	100 nM	–	> 1500 mg/kg	-110.0 ± 20.0 beats/min	-100.2 ± 3.9 mmHg	–	–	–	–
COc1ccccc1N1CCN(CC(O)COc2ccc3cc(C(C)=O)oc3c2)CC1 (centres unmarked) [Ex. 4 (HCl salt), 2-acetyl-6-{2-hydroxy-3-[4-(2-methoxyphenyl)piperazinyl]-propoxy}benzofuran]	–	525 nM	–	22.4 nM	–	> 1000 mg/kg	-172.5 ± 23.9 beats/min	-114.2 ± 1.7 mmHg	–	–	–	–
COc1ccccc1N1CCN(CC(O)COc2ccc3cc(C#N)oc3c2)CC1 (centres unmarked) [Ex. 17 (HCl salt), 2-cyano-6-{2-hydroxy-3-[4-(2-methoxyphenyl)piperazinyl]propoxy}benzofuran]	–	115 nM	–	204 nM	–	900 mg/kg	-154.5 ± 21.1 beats/min	-40.5 ± 6.6 mmHg	–	–	–	–
COc1ccc(Cc2nccc3cc(OC)c(OC)cc23)cc1OC [papavelin, Papavelin, reference compound]	–	–	–	–	136.3 ± 27.0%	–	–	–	–	–	–	–
COc1ccccc1N1CCN(CC(O)COc2cccc3cc(C(C)O)oc23)CC1 (centres unmarked) [Ex. 22, 2-(1-hydroxyethyl)-7-{2-hydroxy-3-[4-(2-methoxyphenyl)piperazinyl]propoxy}benzofuran]	–	1050 nM	–	50.1 nM	87.7 ± 9.4%	> 1500 mg/kg	–	–	-149.2 ± 15.3 beats/min	-42.8 ± 6.7 mmHg	-160.2 ± 19.8 beats/min	-69.5 ± 7.9 mmHg
CC(=O)c1cc2cccc(OCC(O)CN3CCN(c4ccccc4)CC3)c2o1 (centres unmarked) [Ex. 1 (HCl salt), 2-acetyl-7-[3-(4-phenylpiperazinyl)-2-hydroxypropoxy]benzofuran]	–	2950 nM	–	209 nM	–	> 1000 mg/kg	-105.8 ± 3.4 beats/min	-74.6 ± 5.6 mmHg	–	–	–	–
